Assay results from publication PMC4666608, “Metabolic Profiling of Chicken Embryos Exposed to Perfluorooctanoic Acid (PFOA) and Agonists to Peroxisome Proliferator-Activated Receptors” (PLoS ONE, 2015).
Several values for one entry are separate records, joined by “and”; a condition that tells them apart may be missing. Equal values may be shown once. Read-outs that look alike come from different tables or passages of the source.

What was measured:
[1] = system: chicken embryos; test: Embryo mortality after in ovo exposure (air sac injection E7, examined E12); type: in vivo, Gallus gallus domesticus
Experimental: (§1) Controls were injected with 20 μL vehicle only (DMSO).
Embryos were dissected and sampled on E12. The treatment group was concealed to the one carrying out embryo dissections and the order of dissection of the embryos was randomized. The embryos were examined for viability and gross morphology, e.g. appearance of the liver. The sex was determined by the presence of a pair of testes or an ovary.
Mortality rates were analyzed with Fisher’s exact test.

[2] = for Body weight, Mean ± SD / Liver-somatic index, Mean ± SD: E12; for Body weight / Liver weight / Liver-somatic index: group mean
Experimental: The experimental procedures in this study were approved by the Uppsala Ethical Committee for Research on Animals (Permit number C 211/12). Fertilized chicken eggs (Gallus gallus domesticus) were obtained from a local breeder (Ova Production AB, Vittinge, Sweden). The egg weights were 60 ± 4 g (mean and standard deviation). The eggs were incubated at 37.5°C and 60% relative humidity with automatic turning every six hours. The day the eggs were placed in the incubator was defined as embryonic day zero (E0). Chicken embryos were exposed to test substances by air sac injection in eggs incubated for seven days (E7). At this stage, the extraembryonic allantoic blood vessel network has grown to cover the inner shell membrane beneath the air sac and the injected substance will come in direct contact with the vascular network. The exposures were performed as follows: Unfertilized eggs and poorly developing embryos were recognized by candling and were sorted out. Eggs with embryos of normal size were collected and randomly distributed into the different treatment groups. On E7, the blunt end of each egg was wiped with alcohol and a small hole was drilled through the shell above the air sac. The dissolved test substance (20 μl) was deposited onto the inner shell membrane in the air sac and the hole was sealed with melted paraffin wax. Following injection, eggs were held horizontally and rotated for a few seconds to allow dispersal over the inner shell membrane in the air sac. Each egg was marked with a number specifying the treatment group and was placed at a random location in the incubator.
The doses were 150 μg/egg (approximately 2.5 mg/kg egg) for GW7647 and rosiglitazone and 50, 250 or 1000 μg/egg for PFOA (approximately 0.83, 4.2 and 18 mg/kg egg, respectively). Controls were injected with 20 μL vehicle only (DMSO). Due to the large number of embryos required, the experiment was divided into four replicate experiments (replicate A-D) performed the same way but on separate occasions. The number of exposed embryos was 10–15 for each treatment group and replicate.
Embryos and livers were weighed and the liver-somatic index was calculated (100 x liver weight/body weight). Livers were collected from the control group and from each of the PFOA groups for determination of PFOA concentrations. These livers were stored at -20°C and later extracted and analyzed as described below. Four females and four males from each PFOA group (except the 1000 μg/egg group) and from the control group were also randomly chosen for evaluation of signs of overt liver toxicity using liver histology (method described in S1 Methods).
The software GraphPad Prism version 5 (GraphPad Software Inc, San Diego, CA, USA) was used for univariate and bivariate statistics. Mortality rates were analyzed with Fisher’s exact test. Body weight, liver-somatic index and concentrations of plasma lipids were initially analyzed using two-way analysis of variance (two-way ANOVA) with treatment and sex (or treatment and replicate) as independent variables. […] Metabolites were selected by multivariate methods as described below and differences in concentrations (treatment groups vs control group as well as females vs males) were then tested using Student’s t-test. The results of these t-tests on metabolite concentrations were used in an exploratory way to find candidate metabolites and for that reason the p-values were not corrected for multiple comparisons.

[3] = Determination of PFOA in liver (UPLC-MS/MS); type: in vivo, Gallus gallus domesticus; details: for concentration at 5 days: chicken (Gallus gallus domesticus) embryo, other: air sac injection into the egg, 1000 µg/egg; for concentration at 5 days / concentration at 5 d: liver; for concentration at 5 d: chicken, other: air sac injection in ovo
Experimental: as §1
The concentration of PFOA was analyzed in liver and blood plasma from control embryos and embryos exposed to PFOA (50, 250 and 1000 μg/egg). Five individual livers from each PFOA-treated group were analyzed. Very low PFOA concentrations were anticipated in the controls and therefore the amount of tissue was increased by pooling 2–3 livers, and five such pools were analyzed. Four plasma samples (50 μL) were analyzed from each group except the group exposed to 1000 μg PFOA/egg for which three samples were analyzed. Extraction blanks were included for each batch. The analyzed amount of liver homogenate was 100 mg for controls and 50 mg for PFOA-exposed embryos. Livers were homogenized using the bead mill Bullet Blender® Storm 24 (Next Advance, Inc. New York, USA) with stainless steel beads at speed 8 for 3 min. Plasma and liver samples were spiked with 50 ng of internal standard (^13C4-PFOA, Wellington, Guelph, Canada). Five milliliters of acetonitrile (Labscan, Gliwice, Poland) was added to the samples followed by vortex mixing, sonication (20 min), and centrifugation (10 000 g, 5 min). Extraction was performed twice for livers and once for plasma. One mL of supernatant from the extracts was transferred to a tube prepared with 50 mg ENVI-Carb™ 20/400 mesh (Supelco, Bellefonte, PA, USA) and 100 μL glacial acetic acid (Sigma-Aldrich). The carbon suspension was vortex mixed and then filtrated using a 0.2-μm GHP filter (Pall, East Hills, NY, USA). Filtrate (0.4 mL) was mixed with 2 ng of the recovery standard (^13C8-PFOA, Wellington Laboratories) and 0.6 mL 2 mM ammonium acetate was added. Analysis was performed using an Acquity UPLC coupled to a Xevo-TQS MS/MS (Waters Corporation, Milford, MA, USA) as described previously. The recovery standard ^13C8-PFOA was added before injection to assess the recoveries of the internal standard ^13C4-PFOA. The recoveries ranged between 75 and 94% (average 82%) for plasma and between 64 and 119% (average 84%) for liver.

[4] = system: human PPARγ; set-up: method as in PMID 16038868; details: reporter cell assay; read-out: EC50, activation of transcription through human PPARγ; cited from earlier work
[5] = in ovo injection E7, sampled E12, 150 μg/egg
[6] = in ovo injection E7, sampled E12, PFOA 50 μg/egg
[7] = in ovo injection E7, sampled E12, PFOA 250 μg/egg
[8] = in ovo injection E7, sampled E12, PFOA 1000 μg/egg
[9] = PFOA 1000 μg/egg, five embryos from replicate A
[10] = group PFOA 1000 (1000 µg/egg), five embryos, replicate A only

In the case of CC(C)(Sc1ccc(CCN(CCCCC2CCCCC2)C(=O)NC2CCCCC2)cc1)C(=O)O [GW7647, reference compound], the Mortality rate [1, 5] is reported as 0% and the “Mortality rate, Ratio” value [1, 5] is reported as 0/40.
O=C(O)C(F)(F)C(F)(F)C(F)(F)C(F)(F)C(F)(F)C(F)(F)C(F)(F)F [PFOA, perfluorooctanoic acid] gave a Mortality rate ([1]; PFOA 1000 μg/egg, replicate A) of 40%, a Mortality rate ([1]; PFOA 1000 μg/egg, replicate B) of 60% and a Mortality rate ([1]; PFOA 1000 μg/egg, replicate C) of 33%. The Mortality rate ([1]; PFOA 1000 μg/egg, replicate D) was 7%, the “Dose with increased mortality” value ([1]; exposed E7 to E12) was 18 mg/kg egg and the “Dose with no effect on survival (no effect level)” value ([1]; exposed E7 to E12) was 4.2 mg/kg egg. The Mortality ([1]; follow-up study, PFOA 1000 μg/egg, N = 25, control 12%) was 40%, the Mortality rate [1, 6] was 5% and the “Mortality rate, Ratio” value [1, 6] was 2/40. For the same molecule, the Mortality rate [1, 7] was 2.5%, the “Mortality rate, Ratio” value [1, 7] was 1/40 and the Mortality rate [1, 8] was 35% and 35 ^*** %. The “Mortality rate, Ratio” value [1, 8] was 19/54, the “Body weight, Mean ± SD” value ([2]; PFOA 50 μg/egg) was 4.2 ± 0.5 g and the “Liver-somatic index, Mean ± SD” value ([2]; PFOA 50 μg/egg) was 1.7 ± 0.1%. For the same molecule, the “Body weight, Mean ± SD” value ([2]; PFOA 250 μg/egg) was 4.3 ± 0.4 g, the “Liver-somatic index, Mean ± SD” value ([2]; PFOA 250 μg/egg) was 1.7 ± 0.2% and the “Body weight, Mean ± SD” value [2, 9] was 4.6 ± 0.4 g. For the same molecule, the “Liver-somatic index, Mean ± SD” value [2, 9] was 2.0 ± 0.2%, the Body weight ([2]; group PFOA 50 (µg/egg)) was 4.2 g and the Liver weight ([2]; group PFOA 50 (µg/egg)) was 70.6 mg. The Liver-somatic index ([2]; group PFOA 50 (µg/egg)) was 1.7%, the Body weight ([2]; group PFOA 250 (µg/egg)) was 4.3 g and the Liver weight ([2]; group PFOA 250 (µg/egg)) was 72.7 mg. The Liver-somatic index ([2]; group PFOA 250 (µg/egg)) was 1.7%, the Body weight [2, 10] was 4.6 g and the Liver weight [2, 10] was 91.5 mg. The Liver-somatic index [2, 10] was 2.0%, the Concentration in liver ([3]; PFOA 50 µg/egg, chicken embryo liver, individual embryos) was 1067 ng/g and 1343 ng/g and 1269 ng/g and 1059 ng/g and the Concentration in liver ([3]; PFOA 250 µg/egg, chicken embryo liver, individual embryos) was 3843 ng/g and 2549 ng/g and 3327 ng/g and 3144 ng/g. The Concentration in liver ([3]; PFOA 1000 µg/egg, chicken embryo liver, individual embryos) was 11372 ng/g and 14202 ng/g and 9187 ng/g and 10517 ng/g, the concentration at 5 days ([3]; PFOA 1000 µg/egg, chicken embryo liver, group mean (n=5), read-out: Concentration in liver, Mean) was 10800 ng/g and the concentration at 5 days ([3]; PFOA 1000 µg/egg, chicken embryo liver, individual embryos, read-out: Concentration in liver) was 8570 ng/g. The concentration at 5 d ([3]; 50 μg/egg, E12, 50 μg PFOA/egg on E7, read-out: Mean PFOA concentration in liver) was 1100 ng/g, the concentration at 5 d ([3]; 50 µg/egg, PFOA 50 µg/egg, chicken embryo liver, group mean (n=5), read-out: Concentration in liver, Mean) was 1180 ng/g and the concentration at 5 d ([3]; 50 µg/egg, PFOA 50 µg/egg, chicken embryo liver, individual embryos, read-out: Concentration in liver) was 1170 ng/g. The concentration at 5 d ([3]; 250 μg/egg, E12, 250 μg PFOA/egg on E7, read-out: Mean PFOA concentration in liver) was 3600 ng/g, the concentration at 5 d ([3]; 250 µg/egg, PFOA 250 µg/egg, chicken embryo liver, group mean (n=5), read-out: Concentration in liver, Mean) was 3580 ng/g and the concentration at 5 d ([3]; 250 µg/egg, PFOA 250 µg/egg, chicken embryo liver, individual embryos, read-out: Concentration in liver) was 5060 ng/g. It also gave a concentration at 5 d ([3]; 1000 μg/egg, E12, 1000 μg PFOA/egg on E7, read-out: Mean PFOA concentration in liver) of 11000 ng/g.
For CN(CCOc1ccc(CC2SC(=O)NC2=O)cc1)c1ccccn1 (stereo not drawn) [Rosiglitazone, rosiglitazone, reference compound], the Mortality rate [1, 5] is given as 5%, the “Mortality rate, Ratio” value [1, 5] is given as 2/40 and the EC50 [4] is given as 18 nM.
